Data on four molecules can be found in article PMC8952009 (Pharmaceuticals, 2022).

“Also recorded” adds a separate entry of the source. Where only a bound is given, the exact number is not on record here.

One data set has as its target T1, SARS-CoV-2 M^pro (Severe acute respiratory syndrome coronavirus 2, UniProt P0DTD1).
T1 construct: This main protease is located in nsp5; purchased AnaSpec
Nature of the data set: biochemical. The note with it: for inhibition at 100 µM: read-out: Inhibition of enzymatic activity.

A further data set deals with SARS-CoV-1 M^pro (Severe acute respiratory syndrome coronavirus, UniProt P0C6X7). Description: biochemical. The following applies: for inhibition at 100 µM: read-out: Inhibition of enzymatic activity.
For another data set, the target named is MERS-CoV M^pro (Middle East respiratory syndrome-related coronavirus, UniProt K9N7C7). Description: biochemical. The note with it: for inhibition at 100 µM: read-out: MERS-CoV M^pro activity inhibited to.
In data set [1] the target is T2, recombinant M^pro of SARS-CoV-2 (Severe acute respiratory syndrome coronavirus 2, UniProt P0DTD1).
T2 construct: This main protease is located in nsp5; purchased Bio-Techne
Nature of the data set: biochemical. The data set is classed as binding.

Data set [2] addresses recombinant M^pro of SARS-CoV-1 (Severe acute respiratory syndrome coronavirus, UniProt P0C6X7). Nature of the data set: biochemical. The data set is classed as binding.
Data set [3] has as its target recombinant M^pro of MERS-CoV (Middle East respiratory syndrome-related coronavirus, UniProt K9N7C7). Nature of the data set: biochemical. The class given is binding.
The subject of a further data set is hepatitis C virus (HCV). The note with it: chronic HCV infection; oral doses of 0.05 and 0.10 mg/kg/d; cited from earlier work.
The subject of data set [4] is human immunodeficiency virus (HIV). The following applies: orally administered, 0.5 mg/kg daily; limited number of patients; cited from earlier work.
Data set [5] is described as follows: Resazurin cell viability assay. The following applies: human, MRC-5 lung fibroblasts. Background: Resazurin is reduced to fluorescent resorufin, in cell work by metabolically active cells.
The test system of data set [6] is human diploid MRC-5 lung fibroblasts. Nature of the data set: Resazurin cell viability assay. The note with it: MRC-5; tested range 0.3–100 µM; 72 h.
A further data set concerns SARS-CoV-2. The note with it: cited from earlier work.

Sequence of MERS-CoV M^pro (K9N7C7 3248-3553 limits assumed): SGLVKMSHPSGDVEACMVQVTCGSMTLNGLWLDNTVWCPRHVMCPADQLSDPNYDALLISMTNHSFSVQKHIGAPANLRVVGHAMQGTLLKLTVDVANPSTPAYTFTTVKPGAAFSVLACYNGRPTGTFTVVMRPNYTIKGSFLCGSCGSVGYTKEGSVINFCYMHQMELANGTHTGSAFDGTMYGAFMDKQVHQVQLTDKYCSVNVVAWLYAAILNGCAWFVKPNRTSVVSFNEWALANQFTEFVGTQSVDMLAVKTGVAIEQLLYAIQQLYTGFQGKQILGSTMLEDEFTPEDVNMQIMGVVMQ
Sequence of recombinant M^pro of MERS-CoV (K9N7C7 3248-3553 limits assumed): as above

By IC50 is commonly meant the midpoint of a concentration-inhibition curve. Read a high IC50 as a need for much substance. In general, Kd refers to a measure of binding affinity in units of concentration. One may read the CC50 as the concentration that lowers cell viability or growth by half. Regarding `Cc1cc(O)c2c(=O)c3c(O)cc(O)c4c5c(O)cc(O)c6c(=O)c7c(O)cc(C)c8c1c2c(c34)c(c78)c65` [Hypericin], the values for the half-inhibitory concentration (IC50) on SARS-CoV-2 M^pro, at SARS-CoV-1 M^pro and at MERS-CoV M^pro were 23.3 ± 1.21 µM, 19.4 ± 3.11 µM and 49.7 ± 5.41 µM, respectively. Besides, the “Percentage of activity of SARS-CoV-2 M^pro in the presence of compound” value (shortened to “Percentage”) at SARS-CoV-2 M^pro is on record as 4.95%. Also, the entries for the “Therapeutic Index” value on SARS-CoV-2 M^pro, on SARS-CoV-1 M^pro and at MERS-CoV M^pro were 2.38, 2.85 and 1.11, respectively. Also, the inhibition at 100 µM on SARS-CoV-2 M^pro was more than 50%. Besides, the values for the dissociation constant Kd in data set [1], in data set [2] and in data set [3] were 7.73 ± 6.5 µM, 25.5 ± 13.6 µM and 54.9 ± 13.8 µM, respectively. The “Anti-HCV activity in patients” value with hepatitis C virus (HCV) is given as “without detectable anti-HCV activity”. In addition, the “Antiretroviral activity in clinical trial” value in data set [4] is recorded as “without antiretroviral activity”. In addition, it took 55.5 ± 2.2 µM to reach half-maximal cytotoxicity in [5] (CC50 at 72 h). Also, the “Inhibitory effect on cell viability” value in data set [6] is given as “slight toxicity”.

Take `COc1cc(-c2oc3cc(O)cc(O)c3c(=O)c2O)ccc1O` [Isorhamnetin]: at SARS-CoV-2 M^pro, the IC50 was determined as 8.42 ± 1.15 µM, the “Percentage” value was determined as 8.56%, the “Therapeutic Index” value stood at 4.37 and the inhibition at 100 µM is more than 50%. Also, at SARS-CoV-1 M^pro, the IC50 came to 13.1 ± 1.78 µM and the “Therapeutic Index” value came to 2.8. For the same molecule, the inhibition at 100 µM on MERS-CoV M^pro worked out at 26.3%. The dissociation constant (Kd) in data set [1] was found to be 4.37 ± 3.9 µM. Besides, in [2], the Kd came out at 3.6 ± 2.6 µM. Further, the CC50 at 72 h in data set [5] amounted to 36.8 ± 3.4 µM. Besides, the “Inhibitory effect on cell viability” value in data set [6] is “slight toxicity”.

In the case of `O=c1cc(-c2ccc(O)c(O)c2)oc2cc(O)cc(O)c12` [Luteolin], on SARS-CoV-2 M^pro, it took 11.8 ± 1.27 µM to reach half-maximal inhibition (IC50), the “Percentage” value amounted to 10.10% and the inhibition at 100 µM was more than 50%. For the same molecule, the inhibition at 100 µM on SARS-CoV-1 M^pro worked out at 44%. The inhibition at 100 µM on MERS-CoV M^pro is 21.3%. Moreover, in [1], the equilibrium dissociation constant (Kd) was found to be 13.4 ± 2.7 µM.

Take `O=C(/C=C/c1ccc(O)c(O)c1)O[C@H](Cc1ccc(O)c(O)c1)C(=O)O` [Rosmarinic acid]: the IC50 against SARS-CoV-2 M^pro turned out to be 9.43 ± 0.46 µM. For the same molecule, the “Percentage” value on SARS-CoV-2 M^pro was determined as 8.28%. Moreover, the inhibition at 100 µM at SARS-CoV-2 M^pro was more than 50%; at SARS-CoV-1 M^pro, 31%; on MERS-CoV M^pro it was 14.9%. In [1], the Kd was found to be 15.5 ± 4.77 µM. Moreover, the “IC50 value, inhibition of SARS-CoV-2 replication” value in the data set with SARS-CoV-2 was 25.47 µg/mL. The “Inhibitory effect on cell viability” value in data set [6] was “did not show significant inhibitory effects; also recorded: did not inhibit”.
